# ChEMBL document CHEMBL4028802, “DILIrank: the largest reference drug list ranked by the risk for developing drug-induced liver injury in humans” (Drug Discov Today, 2016)
# Positions of bridges follow the written chain, without caps; N, C: chain ends. Non-standard residues stand in square brackets, D forms with d. Residues, ends and D or L forms follow the SMILES beside them. pGlu = O=C1CC[C@@H](C(=O)O)N1
# Legend:
# Homo sapiens [1] = organism: Homo sapiens; experiment: Liver toxicity in human assessed as induction of drug-induced liver injury by measuring severity class index
# Homo sapiens [2] = organism: Homo sapiens; experiment: Liver toxicity in human assessed as induction of drug-induced liver injury by measuring verified drug-induced liver injury concern status
# For DILI severity class in this document: key of the grades not given here.
Compound,DILI_severity_class (Homo sapiens [1]),DILI_Concern (Homo sapiens [2])
CC(C)CN(C[C@@H](O)[C@H](Cc1ccccc1)NC(=O)O[C@H]1CCOC1)S(=O)(=O)c1ccc(N)cc1,3,Ambiguous-Dili-Concern
CNS(=O)(=O)CCc1ccc2[nH]cc(C3CCN(C)CC3)c2c1,4,Ambiguous-Dili-Concern
CNS(=O)(=O)Cc1ccc2[nH]cc(CCN(C)C)c2c1,3,Ambiguous-Dili-Concern
C[C@@H](O)[C@H]1C(=O)N2C(C(=O)O)=C(S[C@@H]3CN[C@H](C(=O)Nc4cccc(C(=O)O)c4)C3)[C@H](C)[C@H]12,3,Ambiguous-Dili-Concern
CC(=O)[C@@]1(O)CC[C@H]2[C@@H]3C[C@H](C)C4=CC(=O)CC[C@]4(C)[C@H]3CC[C@@]21C,2,Ambiguous-Dili-Concern
CN1CCC[C@@H]1Cc1c[nH]c2ccc(CCS(=O)(=O)c3ccccc3)cc12,3,Ambiguous-Dili-Concern
CCCc1nc(C)c2c(=O)[nH]c(-c3cc(S(=O)(=O)N4CCN(CC)CC4)ccc3OCC)nn12,3,Ambiguous-Dili-Concern
CCCC[C@](C)(O)C/C=C/[C@H]1[C@H](O)CC(=O)[C@@H]1CCCCCCC(=O)OC,3,Ambiguous-Dili-Concern
CC(=O)[C@@]1(O)CC[C@H]2[C@@H]3C=C(C)C4=CC(=O)CC[C@]4(C)[C@H]3CC[C@@]21C,1,Ambiguous-Dili-Concern
O=S(=O)(O)O[C@@H]1[C@@H](OS(=O)(=O)O)[C@H](O[C@@H]2CO[C@@H](O)[C@H](OS(=O)(=O)O)[C@H]2OS(=O)(=O)O)OC[C@H]1O,3,Ambiguous-Dili-Concern
O=[N+]([O-])O[C@@H]1CO[C@H]2[C@@H]1OC[C@H]2O,3,Ambiguous-Dili-Concern
C=C1[C@H](CO)[C@@H](O)C[C@@H]1n1cnc2c(=O)[nH]c(N)nc21.O,7,Ambiguous-Dili-Concern
CC(C)(C)NC(=O)[C@@H]1CN(Cc2cccnc2)CCN1C[C@@H](O)C[C@@H](Cc1ccccc1)C(=O)N[C@H]1c2ccccc2C[C@H]1O.O,8,Ambiguous-Dili-Concern
CN1CC(=O)N2[C@H](c3ccc4c(c3)OCO4)c3[nH]c4ccccc4c3C[C@@H]2C1=O,3,Ambiguous-Dili-Concern
CC[C@H](C)[C@@H]1NC(=O)[C@H](Cc2ccc(O)cc2)NC(=O)[C@@H](N)CSSC[C@@H](C(=O)N2CCC[C@H]2C(=O)N[C@@H](CC(C)C)C(=O)NCC(N)=O)NC(=O)[C@H](CC(N)=O)NC(=O)[C@H]([C@@H](C)O)NC1=O (H-CYITNCPLG-NH2; disulfide 1-6),0,No-Dili-Concern
CCNC(=O)[C@@H]1CCCN1C(=O)[C@H](CCCNC(=N)N)NC(=O)[C@H](CC(C)C)NC(=O)[C@H](CC(C)C)NC(=O)[C@H](Cc1ccc(O)cc1)NC(=O)[C@H](CO)NC(=O)[C@H](Cc1c[nH]c2ccccc12)NC(=O)[C@H](Cc1c[nH]cn1)NC(=O)[C@@H]1CCC(=O)N1 ([pGlu]HWSYLLRP-NHEt),3,Less-Dili-Concern
CC(C)=CCN1CC[C@]2(C)c3cc(O)ccc3C[C@H]1[C@H]2C [(+)-PENTAZOCINE],0,No-Dili-Concern
"O[C@@H](c1cc(C(F)(F)F)nc2c(C(F)(F)F)cccc12)[C@H]1CCCCN1 [(S,R)-MEFLOQUINE]",7,Less-Dili-Concern
Nc1nc(NC2CC2)c2ncn([C@H]3C=C[C@@H](CO)C3)c2n1 [ABACAVIR],8,Most-Dili-Concern
CC(=O)NCCCS(=O)(=O)O [ACAMPROSATE],3,Less-Dili-Concern

Compound,DILI_severity_class (Homo sapiens [1]),DILI_Concern (Homo sapiens [2])
C[C@H]1O[C@H](O[C@H]2[C@H](O)[C@@H](O)[C@@H](O[C@H]3[C@H](O)[C@@H](O)C(O)O[C@@H]3CO)O[C@@H]2CO)[C@H](O)[C@@H](O)[C@@H]1N[C@H]1C=C(CO)[C@@H](O)[C@H](O)[C@H]1O (stereo not given in full) [ACARBOSE],8,Most-Dili-Concern
CCCC(=O)Nc1ccc(OCC(O)CNC(C)C)c(C(C)=O)c1 (stereo not given) [ACEBUTOLOL],3,Less-Dili-Concern
O=C(O)COC(=O)Cc1ccccc1Nc1c(Cl)cccc1Cl [ACECLOFENAC],0,Less-Dili-Concern
CC(=O)Nc1nnc(S(N)(=O)=O)s1 [ACETAZOLAMIDE],8,Most-Dili-Concern
CC(=O)NO [ACETOHYDROXAMIC ACID],3,Ambiguous-Dili-Concern
CC(=O)OCC[N+](C)(C)C.[Cl-] [ACETYLCHOLINE CHLORIDE],0,No-Dili-Concern
CC(=O)N[C@@H](CS)C(=O)O [ACETYLCYSTEINE],0,No-Dili-Concern
COc1cc(C)c(/C=C/C(C)=C/C=C/C(C)=C/C(=O)O)c(C)c1C [ACITRETIN],5,Most-Dili-Concern
Nc1nc2c(ncn2COCCO)c(=O)[nH]1 [ACYCLOVIR],5,Less-Dili-Concern
Nc1ncnc2c1ncn2CCOCP(=O)(O)O [ADEFOVIR],2,Less-Dili-Concern
Nc1ncnc2c1ncn2[C@@H]1O[C@H](CO)[C@@H](O)[C@H]1O [ADENOSINE],0,No-Dili-Concern
CC(N)C(=O)OC(C)(C)Cc1ccc(Cl)cc1 (stereo not given) [ALAPROCLATE],8,Most-Dili-Concern
CS(=O)(=O)O.C[C@H](N)C(=O)N[C@@H](C)C(=O)N[C@H]1[C@@H]2CN(c3nc4c(cc3F)c(=O)c(C(=O)O)cn4-c3ccc(F)cc3F)C[C@@H]21 [ALATROFLOXACIN MESYLATE],8,Most-Dili-Concern
CCCSc1ccc2nc(NC(=O)OC)[nH]c2c1 [ALBENDAZOLE],7,Most-Dili-Concern
CC(C)(C)NCC(O)c1ccc(O)c(CO)c1 (stereo not given) [ALBUTEROL],0,No-Dili-Concern
C=CCOc1ccc(CC(=O)O)cc1Cl [ALCLOFENAC],8,Most-Dili-Concern
NCCCC(O)(P(=O)(O)O)P(=O)(O)O [ALENDRONIC ACID],0,Less-Dili-Concern
COc1cc2nc(N(C)CCCNC(=O)C3CCCO3)nc(N)c2cc1OC (stereo not given) [ALFUZOSIN],5,Less-Dili-Concern
Oc1ncnc2[nH]ncc12 [ALLOPURINOL],8,Most-Dili-Concern
CN(C)CCc1c[nH]c2ccc(CS(=O)(=O)N3CCCC3)cc12 [ALMOTRIPTAN],0,No-Dili-Concern

Compound,DILI_severity_class (Homo sapiens [1]),DILI_Concern (Homo sapiens [2])
Cc1[nH]cnc1CN1CCc2c(c3ccccc3n2C)C1=O [ALOSETRON],4,Less-Dili-Concern
CCCN(CCC)C(=O)Cc1c(-c2ccc(Cl)cc2)nc2ccc(Cl)cn12 [ALPIDEM],8,Most-Dili-Concern
Cc1nnc2n1-c1ccc(Cl)cc1C(c1ccccc1)=NC2 [ALPRAZOLAM],7,Less-Dili-Concern
CN(C)c1nc(N(C)C)nc(N(C)C)n1 [ALTRETAMINE],2,Ambiguous-Dili-Concern
C[C@H]1CN(C[C@H](Cc2ccccc2)C(=O)NCC(=O)O)CC[C@@]1(C)c1cccc(O)c1 [ALVIMOPAN],0,No-Dili-Concern
NC12CC3CC(CC(C3)C1)C2 [AMANTADINE],3,Ambiguous-Dili-Concern
CC[N+](CC)(CCNC(=O)C(=O)NCC[N+](CC)(CC)Cc1ccccc1Cl)Cc1ccccc1Cl [AMBENONIUM],0,No-Dili-Concern
COC(c1ccccc1)(c1ccccc1)[C@H](Oc1nc(C)cc(C)n1)C(=O)O [AMBRISENTAN],7,Ambiguous-Dili-Concern
NCCCNCCSP(=O)(O)O [AMIFOSTINE],0,No-Dili-Concern
NCC[C@H](O)C(=O)N[C@@H]1C[C@H](N)[C@@H](O[C@H]2O[C@H](CN)[C@@H](O)[C@H](O)[C@H]2O)[C@H](O)[C@H]1O[C@H]1O[C@H](CO)[C@@H](O)[C@H](N)[C@H]1O [AMIKACIN],0,No-Dili-Concern
N=C(N)NC(=O)c1nc(Cl)c(N)nc1N [AMILORIDE],3,Less-Dili-Concern
O=C(O)CCCCCCNC1c2ccccc2CCc2ccccc21 [AMINEPTINE],8,Most-Dili-Concern
NCCCCCC(=O)O [AMINOCAPROIC ACID],0,No-Dili-Concern
Nc1ccc(C(=O)NCC(=O)O)cc1 [AMINOHIPPURIC ACID],0,No-Dili-Concern
Cn1c(=O)c2[nH]cnc2n(C)c1=O.Cn1c(=O)c2[nH]cnc2n(C)c1=O.NCCN [AMINOPHYLLINE],0,No-Dili-Concern
Nc1ccc(C(=O)O)c(O)c1 [AMINOSALICYLIC ACID],5,Most-Dili-Concern
CCCCc1oc2ccccc2c1C(=O)c1cc(I)c(OCCN(CC)CC)c(I)c1 [AMIODARONE],8,Most-Dili-Concern
CN(C)CCC=C1c2ccccc2CCc2ccccc21 [AMITRIPTYLINE],5,Less-Dili-Concern
CCOC(=O)C1=C(COCCN)NC(C)=C(C(=O)OC)C1c1ccccc1Cl (stereo not given) [AMLODIPINE],5,Less-Dili-Concern
Cl.N [AMMONIUM CHLORIDE],0,No-Dili-Concern
